Our source for the IC50 values is US11578054B2, “Compounds useful as immunomodulators” (Bristol-Myers Squibb Company, priority 2018, dated 2023).

The target of the test is PD-1/PD-L1 (Homo sapiens (Human), UniProt Q9NZQ7). Put plainly: PD-1/PD-L1 Homogenous Time-Resolved Fluorescence (HTRF) binding assay. Particulars: PD-L1-His 10 nM, PD-1-Ig 20 nM. From the text: The ability of the compounds of formula (I) to bind to PD-L1 was investigated using a PD-1/PD-L1 Homogenous Time-Resolved Fluorescence (HTRF) binding assay.
Sequence of PD-1/PD-L1 (Q9NZQ7 other isoform, or with tags, fused parts or gaps): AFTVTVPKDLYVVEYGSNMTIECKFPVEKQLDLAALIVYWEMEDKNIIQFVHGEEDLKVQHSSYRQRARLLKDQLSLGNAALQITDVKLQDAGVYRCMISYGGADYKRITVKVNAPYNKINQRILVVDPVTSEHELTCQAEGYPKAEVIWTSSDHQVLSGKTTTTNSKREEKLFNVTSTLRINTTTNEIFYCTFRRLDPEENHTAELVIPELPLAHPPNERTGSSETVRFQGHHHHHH
Homogenous Time-Resolved Fluorescence (HTRF) binding assay.
The interaction of PD-1 and PD-L1 can be assessed using soluble, purified preparations of the extracellular domains of the two proteins. The PD-1 and PD-L1 protein extracellular domains were expressed as fusion proteins with detection tags, for PD-1, the tag was the Fc portion of Immunoglobulin (PD-1-Ig) and for PD-L1 it was the 6 histidine motif (PD-L1-His). All binding studies were performed in an HTRF assay buffer consisting of dPBS supplemented with 0.1% […] bovine serum albumin and 0.05% (v/v) Tween-20. For the h/PD-L1-His binding assay, inhibitors were pre-incubated with PD-L1-His (10 nM final) for 15m in 4 μl of assay buffer, followed by addition of PD-1-Ig (20 nM final) in 1 µl of assay buffer and further incubation for 15m. HTRF detection was achieved using europium crypate-labeled anti-Ig (1 nM final) and allophycocyanin (APC) labeled anti-His (20 nM final). Antibodies were diluted in HTRF detection buffer and 5 μl was dispensed on top of the binding reaction. The reaction mixture was allowed to equilibrate for 30 minutes and the resulting signal (665 nm/620 nm ratio) was obtained using an EnVision fluorometer. Additional binding assays were established between the human proteins PD-1-Ig/PD-L2-His (20 & 5 nM, respectively) and CD8O-His/PD-L1-Ig (100 & 10 nM, respectively).
Recombinant Proteins: Human PD-1 (25-167) with a C-terminal human Fc domain of immunoglobulin G (Ig) epitope tag [hPD-1 (25-167)-3S-IG] and human PD-L1 (18-239) with a C-terminal His epitope tag [hPD-L1(18-239)-TVMV-His] were expressed in HEK293T cells and purified sequentially by ProteinA affinity chromatography and size exclusion chromatography. Human PD-L2-His and CD8O-His was obtained through commercial sources.
The table below lists the IC50 values for representative examples of this disclosure measured in the PD-1/PD-L1 Homogenous Time-Resolved Fluorescence (HTRF) binding assay.
`CN1CCCC(COc2cccc(-c3cccc4c3CCC4Oc3cc(OCc4cncc(C#N)c4)c(CN4CCCC[C@H]4C(=O)O)cc3Cl)c2Cl)C1` (stereo partly drawn) [Example 1001, (2S)-1-(5-Chloro-4-((4-(2-chloro-3-((1-methylpiperidin-3-yl)methoxy)phenyl)-2,3-dihydro-1H-inden-1-yl)oxy)-2-((5-cyanopyridin-3-yl)methoxy)benzyl)piperidine-2-carboxylic acid]: the half-maximal inhibitory concentration (IC50) was determined as 1.4 nM.

In turn, `CN1CCCC(COc2cccc(-c3cccc4c3CCC4Oc3cc(OCc4cncc(C#N)c4)c(CN[C@](C)(CO)C(=O)O)cc3Cl)c2Cl)C1` (stereo partly drawn) [Example 1002, (2R)-2-((5-Chloro-4-((4-(2-chloro-3-((1-methylpiperidin-3-yl)methoxy)phenyl)-2,3-dihydro-1H-inden-1-yl)oxy)-2-((5-cyanopyridin-3-yl)methoxy)benzyl)amino)-3-hydroxy-2-methylpropanoic acid] yielded an IC50 of 0.9 nM.

As for `CN1CCCC(COc2cccc(-c3cccc4c3CCC4Oc3cc(OCc4cncc(C#N)c4)c(CO)cc3Cl)c2Cl)C1` (stereo not shown) [Example 1003, 5-((4-Chloro-5-((4-(2-chloro-3-((1-methylpiperidin-3-yl)methoxy)phenyl)-2,3-dihydro-1H-inden-1-yl)oxy)-2-(hydroxymethyl)phenoxy)-methyl)nicotinonitrile], the IC50 was 9.1 nM.

Molecule `CN1CCC[C@@H](COc2cccc(-c3cccc4c3CC[C@@H]4Oc3cc(OCc4cncc(C#N)c4)c(CN[C@](C)(CO)C(=O)O)cc3Cl)c2Cl)C1` [Example 1004] showed an IC50 of 3.9 nM.

`CN1CCC[C@@H](COc2cccc(-c3cccc4c3CC[C@@H]4Oc3cc(OCc4cncc(C#N)c4)c(CO)cc3Cl)c2Cl)C1` [Example 1005, 5-((4-chloro-5-(((S)-4-(2-chloro-3-(((R)-1-methylpiperidin-3-yl)methoxy)phenyl)-2,3-dihydro-1H-inden-1-yl)oxy)-2-(hydroxymethyl)phenoxy)methyl)nicotinonitrile] came in with an IC50 of 10.6 nM.

Molecule `CN1CCC[C@@H](COc2cccc(-c3cccc4c3CC[C@H]4Oc3cc(OCc4cncc(C#N)c4)c(CN[C@](C)(CO)C(=O)O)cc3Cl)c2Cl)C1` [Example 1006, (R)-2-((5-chloro-4-(((R)-4-(2-chloro-3-(((R)-1-methylpiperidin-3-yl)methoxy)phenyl)-2,3-dihydro-1H-inden-1-yl)oxy)-2-((5-cyanopyridin-3-yl)methoxy)benzyl)amino)-3-hydroxy-2-methylpropanoic acid] returned a 50% inhibitory concentration (IC50) of 3.5 nM.

In the case of `CN1CCC[C@@H](COc2cccc(-c3cccc4c3CC[C@H]4Oc3cc(OCc4cncc(C#N)c4)c(CO)cc3Cl)c2Cl)C1` [Example 1007, 5-((4-chloro-5-(((R)-4-(2-chloro-3-(((R)-1-methylpiperidin-3-yl)methoxy)phenyl)-2,3-dihydro-1H-inden-1-yl)oxy)-2-(hydroxymethyl)phenoxy)methyl)nicotinonitrile], the IC50 was determined as 4.3 nM.

In the case of `CN1CCC[C@H](COc2cccc(-c3cccc4c3CC[C@@H]4Oc3cc(OCc4cncc(C#N)c4)c(CN[C@](C)(CO)C(=O)O)cc3Cl)c2Cl)C1` [Example 1008, (R)-2-((5-chloro-4-(((S)-4-(2-chloro-3-(((S)-1-methylpiperidin-3-yl)methoxy)phenyl)-2,3-dihydro-1H-inden-1-yl)oxy)-2-((5-cyanopyridin-3-yl)methoxy)benzyl)amino)-3-hydroxy-2-methylpropanoic acid], the IC50 was found to be 3 nM.

The molecule `CN1CCC[C@H](COc2cccc(-c3cccc4c3CC[C@@H]4Oc3cc(OCc4cncc(C#N)c4)c(CO)cc3Cl)c2Cl)C1` [Example 1009, 5-((4-chloro-5-(((S)-4-(2-chloro-3-(((S)-1-methylpiperidin-3-yl)methoxy)phenyl)-2,3-dihydro-1H-inden-1-yl)oxy)-2-(hydroxymethyl)phenoxy)methyl)nicotinonitrile] displayed an IC50 of 24.1 nM.

`CN1CCC[C@H](COc2cccc(-c3cccc4c3CC[C@H]4Oc3cc(OCc4cncc(C#N)c4)c(CN[C@](C)(CO)C(=O)O)cc3Cl)c2Cl)C1` [Example 1010, (R)-2-((5-chloro-4-(((R)-4-(2-chloro-3-(((S)-1-methylpiperidin-3-yl)methoxy)phenyl)-2,3-dihydro-1H-inden-1-yl)oxy)-2-((5-cyanopyridin-3-yl)methoxy)benzyl)amino)-3-hydroxy-2-methylpropanoic acid] had a 50% inhibitory concentration (IC50) of 2 nM.

The molecule `CN1CCC[C@H](COc2cccc(-c3cccc4c3CC[C@H]4Oc3cc(OCc4cncc(C#N)c4)c(CO)cc3Cl)c2Cl)C1` [Example 1011, 5-((4-chloro-5-(((R)-4-(2-chloro-3-(((S)-1-methylpiperidin-3-yl)methoxy)phenyl)-2,3-dihydro-1H-inden-1-yl)oxy)-2-(hydroxymethyl)phenoxy)methyl)nicotinonitrile] returned an IC50 of 10.4 nM.

`Cc1c(OCCCN2CC[C@@H](O)C2)cccc1-c1cccc2c1CCC2Oc1cc(OCc2cncc(C#N)c2)c(CN[C@](C)(CO)C(=O)O)cc1Cl` (stereo partly drawn) [Example 1012, (2R)-2-((5-Chloro-2-((5-cyanopyridin-3-yl)methoxy)-4-((4-(3-(3-((R)-3-hydroxypyrrolidin-1-yl)propoxy)-2-methylphenyl)-2,3-dihydro-1H-inden-1-yl)oxy)benzyl)-amino)-3-hydroxy-2-methylpropanoic acid] returned an IC50 of 1.8 nM.

`Cc1c(OCCCN2CC[C@@H](O)C2)cccc1-c1cccc2c1CCC2Oc1cc(OCc2cncc(C#N)c2)c(CO)cc1Cl` (stereo partly drawn) [Example 1013, 5-((4-Chloro-2-(hydroxymethyl)-5-((4-(3-(3-((R)-3-hydroxypyrrolidin-1-yl)propoxy)-2-methylphenyl)-2,3-dihydro-1H-inden-1-yl)oxy)phenoxy)methyl)nicotinonitrile] had an IC50 of 18.1 nM.

Molecule `Cc1c(OCCCN2CC[C@@H](O)C2)cccc1-c1cccc2c1CCC2Oc1cc(OCc2cncc(C#N)c2)c(CN2CCCC[C@H]2C(=O)O)cc1Cl` (stereo partly drawn) [Example 1014, (2S)-1-(5-Chloro-2-((5-cyanopyridin-3-yl)methoxy)-4-((4-(3-(3-((R)-3-hydroxypyrrolidin-1-yl)propoxy)-2-methylphenyl)-2,3-dihydro-1H-inden-1-yl)oxy)benzyl)-piperidine-2-carboxylic acid] displayed a half-maximal inhibitory concentration (IC50) of 5.8 nM.

`Cc1c(OCCCN2CC[C@@H](O)C2)cccc1-c1cccc2c1CCC2Oc1cc(OCc2cncc(C#N)c2)c(CN[C@@H](CCO)C(=O)O)cc1Cl` (stereo partly drawn) [Example 1015, (5-chloro-2-((5-cyanopyridin-3-yl)methoxy)-4-((4-(3-(3-((R)-3-hydroxypyrrolidin-1-yl)propoxy)-2-methylphenyl)-2,3-dihydro-1H-inden-1-yl)oxy)benzyl)-L-homoserine] came in with a half-maximal inhibitory concentration (IC50) of 1.9 nM.

`CC(=O)NC1CCN(CCCOc2cccc(-c3cccc4c3CCC4Oc3cc(OCc4cncc(C#N)c4)c(CN[C@](C)(CO)C(=O)O)cc3Cl)c2Cl)CC1` (stereo partly drawn) [Example 1016, (2R)-2-((4-((4-(3-(3-(4-Acetamidopiperidin-1-yl)propoxy)-2-chlorophenyl)-2,3-dihydro-1H-inden-1-yl)oxy)-5-chloro-2-((5-cyanopyridin-3-yl)methoxy)benzyl)amino)-3-hydroxy-2-methylpropanoic acid]: the IC50 worked out at 3.4 nM.

`CC(=O)NC1CCN(CCCOc2cccc(-c3cccc4c3CCC4Oc3cc(OCc4cncc(C#N)c4)c(CN4CCCC[C@H]4C(=O)O)cc3Cl)c2Cl)CC1` (stereo partly drawn) [Example 1017, (2S)-1-(4-((4-(3-(3-(4-Acetamidopiperidin-1-yl)propoxy)-2-chlorophenyl)-2,3-dihydro-1H-inden-1-yl)oxy)-5-chloro-2-((5-cyanopyridin-3-yl)methoxy)benzyl)piperidine-2-carboxylic acid] had an IC50 of 0.2 nM.

In turn, `CC(=O)NC1CCN(CCCOc2cccc(-c3cccc4c3CCC4Oc3cc(OCc4cncc(C#N)c4)c(CN[C@@H](CCO)C(=O)O)cc3Cl)c2Cl)CC1` (stereo partly drawn) [Example 1018, (4-((4-(3-(3-(4-Acetamidopiperidin-1-yl)propoxy)-2-chlorophenyl)-2,3-dihydro-1H-inden-1-yl)oxy)-5-chloro-2-((5-cyanopyridin-3-yl)methoxy)benzyl)-L-homoserine] came in with an IC50 of 2.9 nM.

In the case of `C[C@](CO)(NCc1cc(Cl)c(OC2CCc3c(-c4cccc(OCCCNC[C@H](O)CO)c4Cl)cccc32)cc1OCc1cncc(C#N)c1)C(=O)O` (stereo partly drawn) [Example 1019, (2R)-2-((5-chloro-4-((4-(2-chloro-3-(3-(((S)-2,3-dihydroxypropyl)amino)propoxy)phenyl)-2,3-dihydro-1H-inden-1-yl)oxy)-2-((5-cyanopyridin-3-yl)methoxy)benzyl)amino)-3-hydroxy-2-methylpropanoic acid], the concentration for half-maximal inhibition (IC50) amounted to 2.5 nM.
